Source: ChEMBL document CHEMBL2385047, “Synthesis and antifungal evaluation of pentyloxyl-diphenylisoxazoloyl pneumocandins and echinocandins” (Bioorg Med Chem Lett, 2013)
Values after ≈ are worked out from the molar mass of the structure shown. Numbered stars: 1 amine (or outer) side, 2 acyl side, 3 side chain; on linkers, the order of the positions; unused ones are H or OH. Bridge positions count the residues as written; N and C are the ends. Square brackets hold non-standard residues; d marks the D form. Peptide text beside a SMILES is read from it. * marks the point of attachment. Orn(4R-OH,5R-OH) = O=C([C@H](C[C@@H](O)[C@@H](O)N[*:3])N[*:1])[*:2]; Tetradecanoyl(10R,12S-Me2) = CC[C@H](C)C[C@H](C)CCCCCCCCC(=O)*; hTyr(3S-OH,4S-OH) = N[C@H](C(=O)O)[C@H](O)[C@@H](O)c1ccc(O)cc1; Pro(3S-OH,4S-Me) = C[C@H]1CN[C@H](C(=O)O)[C@H]1O; X1 = CCCCCOc1ccc(-c2cc(-c3ccc(C(=O)*)cc3)no2)cc1; Gln(3R-OH) = NC(=O)C[C@@H](O)[C@H](N)C(=O)O; Hyp = O=C(O)[C@@H]1C[C@@H](O)CN1

Legend:
[1] = system: Cryptococcus neoformans; assay: Antifungal activity against capsular wild type Cryptococcus neoformans MY2061 assessed as growth inhibition after 24 hrs by NCCLS broth microdilution method; format: functional; details: MY2061, 24 h, read-out: MIC100
[2] = system: Candida albicans; assay: Antifungal activity against Candida albicans CAI4-R1 assessed as growth inhibition after 24 hrs by NCCLS broth microdilution method; format: functional; details: CAI4-R1, 24 h; for MIC: read-out: MIC100
[3] = system: Candida albicans; assay: Antifungal activity against Candida albicans MY1055 infected in DBA/2 mouse assessed as reduction of log CFU in kidney administered 30 mins as ip tid post infection measured after 24 hrs; format: functional
[4] = system: Candida albicans; assay: Antifungal activity against wild type Candida albicans CAI4 assessed as growth inhibition after 24 hrs by NCCLS broth microdilution method; format: functional; details: CAI4, 24 h; for MIC: read-out: MIC100
[5] = system: Clavispora lusitaniae; assay: Antifungal activity against wild type Candida lusitaniae MY1396 assessed as growth inhibition after 24 hrs by NCCLS broth microdilution method; format: functional; details: MY1396, 24 h; for MIC: read-out: MIC100
[6] = system: Staphylococcus aureus; assay: Antibacterial activity against methicillin-sensitive Staphylococcus aureus MB2865 assessed as growth inhibition after 24 hrs by NCCLS broth microdilution method; format: functional; details: MB2865, 24 h, read-out: MIC100
[7] = system: Pichia kudriavzevii; assay: Antifungal activity against wild type Candida krusei CLY549 assessed as growth inhibition after 24 hrs by NCCLS broth microdilution method; format: functional; details: CLY549, 24 h; for MIC: read-out: MIC100
[8] = system: Candida albicans; assay: Antifungal activity against wild type Candida albicans MY1055 assessed as growth inhibition after 24 hrs by NCCLS broth microdilution method in presence of human serum; format: functional; details: MY1055, 24 h; for MIC: read-out: MIC100
[9] = target: T1, Beta-1,3-glucan synthase (Candida albicans, UniProt O13383); assay: Inhibition of wild type Candida albicans 1,3-beta-D-glucan synthase using UDP[6,3H]-glucose as substrate after 60 mins by liquid scintillation counting analysis
T1 sequence (O13383 whole entry): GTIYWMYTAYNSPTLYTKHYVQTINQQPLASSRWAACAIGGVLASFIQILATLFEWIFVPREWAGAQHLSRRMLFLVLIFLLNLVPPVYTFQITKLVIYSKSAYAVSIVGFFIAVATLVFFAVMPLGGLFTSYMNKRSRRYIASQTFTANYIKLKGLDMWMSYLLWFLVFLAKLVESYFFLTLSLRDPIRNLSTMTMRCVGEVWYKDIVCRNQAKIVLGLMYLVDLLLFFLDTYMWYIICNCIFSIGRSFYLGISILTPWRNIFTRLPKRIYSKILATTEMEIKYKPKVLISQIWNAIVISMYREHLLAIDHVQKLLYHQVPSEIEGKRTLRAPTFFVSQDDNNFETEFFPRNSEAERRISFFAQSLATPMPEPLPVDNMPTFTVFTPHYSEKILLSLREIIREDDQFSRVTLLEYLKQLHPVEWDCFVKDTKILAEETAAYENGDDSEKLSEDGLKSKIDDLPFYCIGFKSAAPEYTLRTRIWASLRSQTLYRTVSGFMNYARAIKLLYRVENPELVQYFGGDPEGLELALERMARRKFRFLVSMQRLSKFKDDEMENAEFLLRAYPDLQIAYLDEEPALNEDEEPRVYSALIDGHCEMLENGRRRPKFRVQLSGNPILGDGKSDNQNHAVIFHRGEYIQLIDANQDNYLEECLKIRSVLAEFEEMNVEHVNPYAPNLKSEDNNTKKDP

[10] = system: Aspergillus fumigatus; assay: Antifungal activity against Aspergillus fumigatus MF5668 caspofungin spontaneous resistance mutant assessed as growth inhibition after 24 hrs by NCCLS broth microdilution method; format: functional; details: MF5668, 24 h; for minimal effective concentration: read-out: MEC
[11] = system: Escherichia coli; assay: Antibacterial activity against Escherichia coli ATCC 25922 assessed as growth inhibition after 24 hrs by NCCLS broth microdilution method; format: functional; details: ATCC 25922, 24 h, read-out: MIC100
[12] = system: Candida parapsilosis; assay: Antifungal activity against wild type Candida parapsilosis ATCC 22019 assessed as growth inhibition after 24 hrs by NCCLS broth microdilution method; format: functional; details: Lodderomyces parapsilosis, ATCC 22019, 24 h; for MIC: read-out: MIC100
[13] = system: Candida albicans; assay: Antifungal activity against wild type Candida albicans MY1055 assessed as growth inhibition after 24 hrs by NCCLS broth microdilution method; format: functional; details: MY1055, 24 h; for MIC: read-out: MIC100
[14] = system: Candida albicans; assay: Antifungal activity against Candida albicans NR3 assessed as growth inhibition after 24 hrs by NCCLS broth microdilution method; format: functional; details: NR3, 24 h; for MIC: read-out: MIC100
[15] = system: Meyerozyma guilliermondii; assay: Antifungal activity against wild type Candida guilliermondii CLY308 assessed as growth inhibition after 24 hrs by NCCLS broth microdilution method; format: functional; details: CLY308, 24 h; for MIC: read-out: MIC100
[16] = system: Nakaseomyces glabratus; assay: Antifungal activity against wild type Candida glabrata MY1381 assessed as growth inhibition after 24 hrs by NCCLS broth microdilution method; format: functional; details: MY1381, 24 h; for MIC: read-out: MIC100

Compound: CCCCCOc1ccc(-c2cc(-c3ccc(C(=O)N[C@H]4C[C@@H](O)[C@@H](O)NC(=O)[C@@H]5[C@@H](O)[C@@H](C)CN5C(=O)[C@H]([C@H](O)CC(N)=O)NC(=O)[C@H]([C@H](O)[C@@H](O)c5ccc(O)cc5)NC(=O)[C@@H]5C[C@@H](O)CN5C(=O)[C@H]([C@@H](C)O)NC4=O)cc3)no2)cc1 (X1-[Orn(4R-OH,5R-OH)]T[Hyp][hTyr(3S-OH,4S-OH)][Gln(3R-OH)][Pro(3S-OH,4S-Me)]; lactam 1-C)
- MIC [1]: > 32 µg/mL
- MIC80 [2]: 0.5 µg/mL (≈ 0.426 µM)
- MIC [2]: 2 µg/mL (≈ 1.7 µM)
- ED90 [3]: 0.12 mg/kg/day
- ED99 [3]: 0.82 mg/kg/day
- MIC80 [4]: < 0.03 µg/mL
- MIC [4]: 0.06 µg/mL (≈ 0.0511 µM)
- MIC80 [5]: < 0.03 µg/mL
- MIC [5]: 0.125 µg/mL (≈ 0.106 µM)
- MIC [6]: > 32 µg/mL
- MIC80 [7]: 0.125 µg/mL (≈ 0.106 µM)
- MIC [7]: 1 µg/mL (≈ 0.852 µM)
- MIC80 [8]: 0.25 µg/mL
- MIC [8]: 1 µg/mL
- IC50 [9]: 35 nM
- MIC80 [10]: < 0.03 µg/mL
- minimal effective concentration [10]: > 32 µg/mL
- MIC [11]: > 32 µg/mL
- MIC80 [12]: 2 µg/mL (≈ 1.7 µM)
- MIC [12]: 32 µg/mL (≈ 27.3 µM)
- MIC80 [13]: < 0.03 µg/mL
- MIC [13]: 0.06 µg/mL (≈ 0.0511 µM)
- MIC80 [14]: 2 µg/mL (≈ 1.7 µM)
- MIC [14]: 4 µg/mL (≈ 3.41 µM)
- MIC80 [15]: 0.5 µg/mL (≈ 0.426 µM)
- MIC [15]: 2 µg/mL (≈ 1.7 µM)
- MIC80 [16]: 0.06 µg/mL (≈ 0.0511 µM)
- MIC [16]: 0.25 µg/mL (≈ 0.213 µM)

Compound: CCCCCOc1ccc(-c2cc(-c3ccc(C(=O)N[C@H]4C[C@@H](O)[C@@H](O)NC(=O)[C@@H]5[C@@H](O)[C@@H](C)CN5C(=O)[C@H]([C@@H](C)O)NC(=O)[C@H]([C@H](O)[C@@H](O)c5ccc(O)cc5)NC(=O)[C@@H]5C[C@@H](O)CN5C(=O)[C@H]([C@@H](C)O)NC4=O)cc3)no2)cc1 (X1-[Orn(4R-OH,5R-OH)]T[Hyp][hTyr(3S-OH,4S-OH)]T[Pro(3S-OH,4S-Me)]; lactam 1-C)
- MIC [1]: > 32 µg/mL
- MIC80 [2]: 1 µg/mL (≈ 0.884 µM)
- MIC [2]: 8 µg/mL (≈ 7.07 µM)
- MIC80 [4]: < 0.03 µg/mL
- MIC [4]: 0.5 µg/mL (≈ 0.442 µM)
- MIC80 [5]: 0.125 µg/mL (≈ 0.111 µM)
- MIC [5]: 1 µg/mL (≈ 0.884 µM)
- MIC [6]: > 32 µg/mL
- MIC80 [7]: 0.5 µg/mL (≈ 0.442 µM)
- MIC [7]: 1 µg/mL (≈ 0.884 µM)
- MIC80 [8]: 0.5 µg/mL
- MIC [8]: 2 µg/mL
- IC50 [9]: 4.4 nM
- MIC80 [10]: < 0.03 µg/mL
- minimal effective concentration [10]: > 32 µg/mL
- MIC [11]: > 32 µg/mL
- MIC80 [12]: 4 µg/mL (≈ 3.54 µM)
- MIC [12]: 32 µg/mL (≈ 28.3 µM)
- MIC80 [13]: 0.06 µg/mL (≈ 0.053 µM)
- MIC [13]: 0.5 µg/mL (≈ 0.442 µM)
- MIC80 [14]: 4 µg/mL (≈ 3.54 µM)
- MIC [14]: 16 µg/mL (≈ 14.1 µM)
- MIC80 [15]: 2 µg/mL (≈ 1.77 µM)
- MIC [15]: 4 µg/mL (≈ 3.54 µM)
- MIC80 [16]: 0.25 µg/mL (≈ 0.221 µM)
- MIC [16]: 1 µg/mL (≈ 0.884 µM)

Compound: CC[C@H](C)C[C@H](C)CCCCCCCCC(=O)N[C@H]1C[C@@H](O)[C@@H](O)NC(=O)[C@@H]2[C@@H](O)[C@@H](C)CN2C(=O)[C@H]([C@H](O)CC(N)=O)NC(=O)[C@H]([C@H](O)[C@@H](O)c2ccc(O)cc2)NC(=O)[C@@H]2C[C@@H](O)CN2C(=O)[C@H]([C@@H](C)O)NC1=O ({Tetradecanoyl(10R,12S-Me2)}-[Orn(4R-OH,5R-OH)]T[Hyp][hTyr(3S-OH,4S-OH)][Gln(3R-OH)][Pro(3S-OH,4S-Me)]; lactam 1-C)
- MIC [1]: > 32 µg/mL
- MIC80 [2]: 8 µg/mL (≈ 7.41 µM)
- MIC [2]: 16 µg/mL (≈ 14.8 µM)
- ED90 [3]: 1.15 mg/kg/day
- ED99 [3]: 6.77 mg/kg/day
- MIC80 [4]: < 0.03 µg/mL
- MIC [4]: 0.5 µg/mL (≈ 0.463 µM)
- MIC80 [5]: 1 µg/mL (≈ 0.927 µM)
- MIC [5]: 4 µg/mL (≈ 3.71 µM)
- MIC [6]: > 32 µg/mL
- MIC80 [7]: 4 µg/mL (≈ 3.71 µM)
- MIC [7]: 8 µg/mL (≈ 7.41 µM)
- MIC80 [8]: 16 µg/mL
- MIC [8]: 32 µg/mL
- IC50 [9]: 17.6 nM
- MIC80 [10]: 4 µg/mL (≈ 3.71 µM)
- minimal effective concentration [10]: > 32 µg/mL
- MIC [11]: > 32 µg/mL
- MIC80 [12]: 8 µg/mL (≈ 7.41 µM)
- MIC [12]: > 32 µg/mL
- MIC80 [13]: 0.125 µg/mL (≈ 0.116 µM)
- MIC [13]: 0.5 µg/mL (≈ 0.463 µM)
- MIC80 [14]: 32 µg/mL (≈ 29.7 µM)
- MIC [14]: > 32 µg/mL
- MIC80 [15]: 4 µg/mL (≈ 3.71 µM)
- MIC [15]: 32 µg/mL (≈ 29.7 µM)
- MIC80 [16]: 2 µg/mL (≈ 1.85 µM)
- MIC [16]: 4 µg/mL (≈ 3.71 µM)
